pIC50: −log10 of the molar value.
Columns and labels:
human TLR8 = human TLR8 (Homo sapiens (Human), UniProt Q9NR97); test: TLR8 inhibition reporter assay (HEK-Blue SEAP reporter, R848 stimulation); conditions: read-out: TLR8 IC50; HEK-Blue cells overexpressing human TLR8, R848 15.9 μM, SEAP reporter;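 further: SEAP driven by IFN-β minimal promoter with NF-κB and AP-1 sites, 22 h incubation, compounds 0.05 nM–50 µM, inhibition scaled between agonist plus DMSO and reference inhibitor wells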
human TLR7 = human TLR7 (Homo sapiens (Human), UniProt Q9NYK1); test: TLR7 inhibition reporter assay (HEK-Blue SEAP reporter, gardiquimod stimulation); assay type: cell-based; conditions: HEK-Blue cells overexpressing human TLR7, gardiquimod 7.5 μM
Sequence of human TLR7 (Q9NYK1 27-1049): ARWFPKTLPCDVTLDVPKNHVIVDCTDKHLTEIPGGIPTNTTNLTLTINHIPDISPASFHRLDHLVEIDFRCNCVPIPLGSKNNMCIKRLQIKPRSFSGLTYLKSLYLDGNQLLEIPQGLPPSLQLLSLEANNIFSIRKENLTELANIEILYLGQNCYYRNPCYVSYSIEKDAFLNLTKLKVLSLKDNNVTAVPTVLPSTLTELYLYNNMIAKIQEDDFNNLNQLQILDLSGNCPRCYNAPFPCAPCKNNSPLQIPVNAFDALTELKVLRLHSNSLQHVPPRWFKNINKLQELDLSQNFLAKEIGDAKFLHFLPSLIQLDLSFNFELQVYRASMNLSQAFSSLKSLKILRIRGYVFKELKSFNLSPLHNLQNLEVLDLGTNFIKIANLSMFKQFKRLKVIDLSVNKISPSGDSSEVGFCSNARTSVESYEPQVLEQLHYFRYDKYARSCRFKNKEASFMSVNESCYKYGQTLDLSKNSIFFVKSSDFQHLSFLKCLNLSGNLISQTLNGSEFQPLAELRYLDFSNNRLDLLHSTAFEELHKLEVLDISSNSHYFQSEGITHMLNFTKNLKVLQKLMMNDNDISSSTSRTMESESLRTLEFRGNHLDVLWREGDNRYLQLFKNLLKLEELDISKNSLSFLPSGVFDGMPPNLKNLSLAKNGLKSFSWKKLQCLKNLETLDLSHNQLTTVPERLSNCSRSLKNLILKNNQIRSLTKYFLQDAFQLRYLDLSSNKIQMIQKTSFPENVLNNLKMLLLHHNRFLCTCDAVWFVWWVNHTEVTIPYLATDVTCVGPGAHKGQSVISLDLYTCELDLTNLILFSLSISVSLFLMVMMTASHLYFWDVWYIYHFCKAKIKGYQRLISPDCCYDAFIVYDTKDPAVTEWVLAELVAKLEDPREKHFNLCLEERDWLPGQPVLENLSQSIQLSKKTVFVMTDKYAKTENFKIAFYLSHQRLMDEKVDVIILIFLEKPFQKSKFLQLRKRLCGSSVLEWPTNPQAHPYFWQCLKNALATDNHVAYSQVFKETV
Method: HEK-Blue™-cells (Invivogen) overexpressing human TLR7, TLR8 or TLR9 receptors were used for screening inhibitors of these receptors using an inducible SEAP (secreted embryonic alkaline phosphatase) reporter gene under the control of the IFN-β minimal promoter fused to five NF-κB and AP-1-binding sites. Briefly, cells are seeded into Greiner 384 well plates (15000 cells per well for TLR7, 20,000 for TLR8 and 25,000 for TLR9) and then treated with test compounds in DMSO to yield a final dose response concentration range of 0.05 nM-50 μM. After a 30 minute compound pre-treatment at room temperature, the cells are then stimulated with a TLR7 ligand (gardiquimod at a final concentration of 7.5 μM), TLR8 ligand (R848 at a final concentration of 15.9 μM) or TLR9 ligand (ODN2006 at a final concentration of 5 nM) to activate NF-κB and AP-1 which induce the production of SEAP. After a 22 hour incubation at 37° C., 5% CO2, SEAP levels are determined with the addition of HEK-Blue™ Detection reagent (Invivogen), a cell culture medium that allows for detection of SEAP, according to manufacturer's specifications.

human TLR9 = human TLR9 (Homo sapiens (Human), UniProt Q9NR96); test: TLR9 inhibition reporter assay (HEK-Blue SEAP reporter, ODN2006 stimulation); conditions: read-out: TLR9 IC50; HEK-Blue cells overexpressing human TLR9, ODN2006 5 nM, SEAP reporter;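 further: SEAP reporter under IFN-β minimal promoter with five NF-κB and AP-1 sites, 22 h incubation, compounds 0.05 nM–50 µM, inhibition relative to agonist plus DMSO versus known inhibitor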
Sequence of human TLR9 (Q9NR96 26-1032): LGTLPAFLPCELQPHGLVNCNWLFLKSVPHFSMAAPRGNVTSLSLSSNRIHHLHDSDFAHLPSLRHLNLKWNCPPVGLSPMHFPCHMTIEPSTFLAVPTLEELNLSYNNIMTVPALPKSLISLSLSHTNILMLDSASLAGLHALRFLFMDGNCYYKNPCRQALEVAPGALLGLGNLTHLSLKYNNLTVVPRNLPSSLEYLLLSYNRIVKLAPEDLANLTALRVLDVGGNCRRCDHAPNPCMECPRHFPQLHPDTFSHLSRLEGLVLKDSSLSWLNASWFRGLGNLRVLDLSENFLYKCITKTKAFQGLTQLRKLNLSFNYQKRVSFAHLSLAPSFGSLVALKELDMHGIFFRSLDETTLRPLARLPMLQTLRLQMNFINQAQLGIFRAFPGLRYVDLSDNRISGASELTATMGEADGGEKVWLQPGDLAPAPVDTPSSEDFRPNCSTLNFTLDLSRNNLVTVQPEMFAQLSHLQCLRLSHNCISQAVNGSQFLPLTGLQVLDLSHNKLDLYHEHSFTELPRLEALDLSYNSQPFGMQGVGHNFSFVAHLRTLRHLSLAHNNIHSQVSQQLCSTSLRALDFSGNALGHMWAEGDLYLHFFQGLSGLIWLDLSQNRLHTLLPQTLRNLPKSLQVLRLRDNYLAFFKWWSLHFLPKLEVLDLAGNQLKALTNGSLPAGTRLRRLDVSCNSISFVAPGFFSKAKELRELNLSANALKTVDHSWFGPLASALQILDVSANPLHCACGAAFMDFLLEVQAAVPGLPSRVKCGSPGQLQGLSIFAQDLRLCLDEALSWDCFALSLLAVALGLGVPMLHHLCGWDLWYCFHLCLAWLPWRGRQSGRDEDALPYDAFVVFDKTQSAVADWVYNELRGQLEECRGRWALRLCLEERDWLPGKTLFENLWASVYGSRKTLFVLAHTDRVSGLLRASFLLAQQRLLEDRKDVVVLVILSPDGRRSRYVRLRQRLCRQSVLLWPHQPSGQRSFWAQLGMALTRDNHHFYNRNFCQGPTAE

Sequence of human TLR8 (Q9NR97 27-1041): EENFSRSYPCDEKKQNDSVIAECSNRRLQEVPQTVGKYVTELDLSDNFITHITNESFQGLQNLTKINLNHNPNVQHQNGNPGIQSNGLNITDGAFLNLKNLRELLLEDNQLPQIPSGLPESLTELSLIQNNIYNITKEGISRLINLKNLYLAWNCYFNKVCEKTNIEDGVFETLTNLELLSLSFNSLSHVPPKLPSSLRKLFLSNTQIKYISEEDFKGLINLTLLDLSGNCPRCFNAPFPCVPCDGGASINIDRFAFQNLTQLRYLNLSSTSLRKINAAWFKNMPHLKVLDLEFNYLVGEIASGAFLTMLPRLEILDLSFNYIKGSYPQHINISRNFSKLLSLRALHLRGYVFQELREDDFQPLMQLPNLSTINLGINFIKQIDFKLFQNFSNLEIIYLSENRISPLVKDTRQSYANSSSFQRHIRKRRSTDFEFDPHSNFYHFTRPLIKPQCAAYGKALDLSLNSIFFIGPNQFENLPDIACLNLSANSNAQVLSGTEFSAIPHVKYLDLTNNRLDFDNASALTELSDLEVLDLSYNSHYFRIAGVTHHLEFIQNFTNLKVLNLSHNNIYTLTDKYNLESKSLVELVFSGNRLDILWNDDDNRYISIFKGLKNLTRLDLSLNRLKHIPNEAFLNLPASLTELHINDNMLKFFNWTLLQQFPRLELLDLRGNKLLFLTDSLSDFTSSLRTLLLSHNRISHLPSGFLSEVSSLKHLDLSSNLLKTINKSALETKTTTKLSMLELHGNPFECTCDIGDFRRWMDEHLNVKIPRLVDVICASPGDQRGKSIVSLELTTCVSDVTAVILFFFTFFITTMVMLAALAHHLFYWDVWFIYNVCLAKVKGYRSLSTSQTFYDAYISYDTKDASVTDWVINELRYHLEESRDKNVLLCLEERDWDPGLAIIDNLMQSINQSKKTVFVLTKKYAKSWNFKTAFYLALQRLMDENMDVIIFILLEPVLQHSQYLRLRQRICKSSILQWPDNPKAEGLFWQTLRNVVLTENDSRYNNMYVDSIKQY

SMILES | pIC50 (human TLR8) | pIC50 (human TLR7) | pIC50 (human TLR9)
COc1cc(-c2[nH]c3ccc(C(=O)NC4CCN(C(C)C)CC4)cc3c2C(C)C)cn2ncnc12 [Example 127, 3-isopropyl-N-(1-isopropylpiperidin-4-yl)-2-(8-methoxy-[1,2,4]triazolo[1,5-a]pyridin-6-yl)-1H-indole-5-carboxamide] | 8.77 | 8.60 | 6.04
COc1cc(-c2[nH]c3ccc(C(=O)N4CCCN(C)CC4)cc3c2C(C)C)cn2ncnc12 [Example 128, (3-isopropyl-2-(8-methoxy-[1,2,4]triazolo[1,5-a]pyridin-6-yl)-1H-indol-5-yl)(4-methyl-1,4-diazepan-1-yl)methanone] | 8.59 | 8.42 | 5.85
COc1cc(-c2[nH]c3ccc(C(=O)N(C)CCN(C)C)cc3c2C(C)C)cn2ncnc12 [Example 129, N-(2-(dimethylamino)ethyl)-3-isopropyl-2-(8-methoxy-[1,2,4]triazolo[1,5-a]pyridin-6-yl)-N-methyl-1H-indole-5-carboxamide] | 8.64 | 8.74 | 5.48
Cc1cc(-c2[nH]c3ccc(C(C)C(=O)NC[C@@H](F)C(C)(C)O)cc3c2C(C)C)ccn1 (stereo partly drawn) [Example 130, N—((R)-2-fluoro-3-hydroxy-3-methylbutyl)-2-(3-isopropyl-2-(2-methylpyridin-4-yl)-1H-indol-5-yl)propanamide] | 6.09 | 6.13 | < 4.30
Cc1cc(-c2[nH]c3ccc(C(C)C(=O)NCC(C)(C)O)cc3c2C(C)C)ccn1 (stereo not drawn) [Example 131, N-(2-hydroxy-2-methylpropyl)-2-(3-isopropyl-2-(2-methylpyridin-4-yl)-1H-indol-5-yl)propanamide] | 6.01 | 6.18 | < 4.30
Cc1cc(-c2[nH]c3ccc(C(C)(C)C(=O)NC[C@@H](F)C(C)(C)O)cc3c2C(C)C)ccn1 [Example 133, (R)—N-(2-fluoro-3-hydroxy-3-methylbutyl)-2-(3-isopropyl-2-(2-methylpyridin-4-yl)-1H-indol-5-yl)-2-methylpropanamide] | 6.40 | 6.55 | < 4.30
Cc1cc(-c2[nH]c3ccc(C(C)(C)C(=O)NCCN)cc3c2C(C)C)ccn1 [Example 134, N-(2-aminoethyl)-2-(3-isopropyl-2-(2-methylpyridin-4-yl)-1H-indol-5-yl)-2-methylpropanamide] | 6.96 | 7.20 | 5.96
Cc1cc(-c2[nH]c3ccc(C(C)(C)C(=O)NCCC(C)(C)O)cc3c2C(C)C)ccn1 [Example 135, N-(3-hydroxy-3-methylbutyl)-2-(3-isopropyl-2-(2-methylpyridin-4-yl)-1H-indol-5-yl)-2-methylpropanamide] | 6.26 | 6.69 | < 4.30
CC(C)c1c(-c2ccnc3[nH]ncc23)[nH]c2ccc(CCC(=O)N3CCOCC3)cc12 [Example 136, 3-(3-isopropyl-2-(1H-pyrazolo[3,4-b]pyridin-4-yl)-1H-indol-5-yl)-1-morpholinopropan-1-one] | 6.39 | 5.75 | < 4.30
COc1ccc(-c2[nH]c3ccc(CCC(=O)N4CC5CNCC5C4)cc3c2C(C)C)cc1OC (stereo not drawn) [Example 137, 3-(2-(3,4-dimethoxyphenyl)-3-isopropyl-1H-indol-5-yl)-1-(hexahydropyrrolo[3,4-c]pyrrol-2(1H)-yl)propan-1-one] | 7.49 | 6.96 | 6.08
Cc1cc(-c2[nH]c3ccc(C(C)(C)C(=O)N[C@H]4CCNC4)cc3c2C(C)C)ccn1 [Example 138, (S)-2-(3-isopropyl-2-(2-methylpyridin-4-yl)-1H-indol-5-yl)-2-methyl-N-(pyrrolidin-3-yl)propanamide] | 7.19 | 7.28 | 5.93
Cc1cc(-c2[nH]c3ccc(C(C)(C)C(=O)NC4CCN(C(C)C)CC4)cc3c2C(C)C)ccn1 [Example 139, 2-(3-isopropyl-2-(2-methylpyridin-4-yl)-1H-indol-5-yl)-N-(1-isopropylpiperidin-4-yl)-2-methylpropanamide] | 6.81 | 7.60 | 5.94
Cc1cc(-c2[nH]c3ccc(C(C)(C)C(=O)N[C@@H]4CCCNC4)cc3c2C(C)C)ccn1 [Example 140, (R)-2-(3-isopropyl-2-(2-methylpyridin-4-yl)-1H-indol-5-yl)-2-methyl-N-(piperidin-3-yl)propanamide] | 7.49 | 7.40 | 5.92
Cc1cc(-c2[nH]c3ccc(C(C)(C)C(=O)N[C@@H]4CCNC4)cc3c2C(C)C)ccn1 [Example 141, (R)-2-(3-isopropyl-2-(2-methylpyridin-4-yl)-1H-indol-5-yl)-2-methyl-N-(pyrrolidin-3-yl)propanamide] | 7.17 | 7.24 | 6.05
Cc1cc(-c2[nH]c3ccc(C(C)(C)C(=O)NC4CN5CCC4CC5)cc3c2C(C)C)ccn1 (stereo not drawn) [Example 142, 2-(3-isopropyl-2-(2-methylpyridin-4-yl)-1H-indol-5-yl)-2-methyl-N-(quinuclidin-3-yl)propanamide] | 6.92 | 7.80 | 6.10
Cc1cc(-c2[nH]c3ccc(C(C)(C)C(=O)NC4CCNCC4)cc3c2C(C)C)ccn1 [Example 143, 2-(3-isopropyl-2-(2-methylpyridin-4-yl)-1H-indol-5-yl)-2-methyl-N-(piperidin-4-yl)propanamide] | 6.83 | 7.46 | 6.25
Cc1cc(-c2[nH]c3ccc(C(C)(C)C(=O)NC4CCC5CNCC54)cc3c2C(C)C)ccn1 (stereo not drawn) [Example 144, 2-(3-isopropyl-2-(2-methylpyridin-4-yl)-1H-indol-5-yl)-2-methyl-N-(octahydrocyclopenta[c]pyrrol-4-yl)propanamide] | 7.19 | 7.59 | 6.17
Cc1cc(-c2[nH]c3ccc(C(C)(C)C(=O)NC4CCN(C5CCNC5)CC4)cc3c2C(C)C)ccn1 (stereo not drawn) [Example 145, 2-(3-isopropyl-2-(2-methylpyridin-4-yl)-1H-indol-5-yl)-2-methyl-N-(1-(pyrrolidin-3-yl)piperidin-4-yl)propanamide] | 6.11 | 6.26 | 5.35
Cc1cc(-c2[nH]c3ccc(C(C)(C)C(=O)NC4CCC5CNCC54)cc3c2C(C)C)ccn1 (stereo not drawn) [Example 146, 2-(3-isopropyl-2-(2-methylpyridin-4-yl)-1H-indol-5-yl)-2-methyl-N-(octahydrocyclopenta[c]pyrrol-4-yl)propanamide] | 6.91 | 6.80 | 6.01
Cc1cc(-c2[nH]c3ccc(C(C)(C)C(=O)NC4CCC5CNCC54)cc3c2C(C)C)ccn1 (stereo not drawn) [Example 147, 2-(3-isopropyl-2-(2-methylpyridin-4-yl)-1H-indol-5-yl)-2-methyl-N-(octahydrocyclopenta[c]pyrrol-4-yl)propanamide] | 7.04 | 6.96 | 5.92
Cc1cc(-c2[nH]c3ccc(C(C)(C)C(=O)N4CC5CC(C4)C5N)cc3c2C(C)C)ccn1 (stereo not drawn) [Example 148, 1-(6-amino-3-azabicyclo[3.1.1]heptan-3-yl)-2-(3-isopropyl-2-(2-methylpyridin-4-yl)-1H-indol-5-yl)-2-methylpropan-1-one] | 7.10 | 7.06 | 5.58
Cc1cc(-c2[nH]c3ccc(C(C)(C)C(=O)N4CC5CN(C)CC5C4)cc3c2C(C)C)ccn1 (stereo not drawn) [Example 149, 2-(3-isopropyl-2-(2-methylpyridin-4-yl)-1H-indol-5-yl)-2-methyl-1-(5-methylhexahydropyrrolo[3,4-c]pyrrol-2(1H)-yl)propan-1-one] | 6.56 | 7.77 | 5.52
Cc1cc(-c2[nH]c3ccc(C(C)(C)C(=O)N4CCC5(CCN(C)C5)CC4)cc3c2C(C)C)ccn1 [Example 150, 2-(3-isopropyl-2-(2-methylpyridin-4-yl)-1H-indol-5-yl)-2-methyl-1-(2-methyl-2,8-diazaspiro[4.5]decan-8-yl)propan-1-one] | 6.85 | 7.66 | 5.83
Cc1cc(-c2[nH]c3ccc(C(C)(C)C(=O)N4CCC(CN)C4)cc3c2C(C)C)ccn1 (stereo not drawn) [Example 151, 1-(3-(aminomethyl)pyrrolidin-1-yl)-2-(3-isopropyl-2-(2-methylpyridin-4-yl)-1H-indol-5-yl)-2-methylpropan-1-one] | 6.76 | 7.14 | 5.15
Cc1cc(-c2[nH]c3ccc(C(C)(C)C(=O)N4CCCC5(CCCCC5N)C4)cc3c2C(C)C)ccn1 (stereo not drawn) [Example 152, 1-(7-amino-2-azaspiro[5.5]undecan-2-yl)-2-(3-isopropyl-2-(2-methylpyridin-4-yl)-1H-indol-5-yl)-2-methylpropan-1-one] | 7.34 | 7.51 | 5.58
Cc1cc(-c2[nH]c3ccc(C(C)(C)C(=O)N4CCC(N)CC4)cc3c2C(C)C)ccn1 [Example 153, 1-(4-aminopiperidin-1-yl)-2-(3-isopropyl-2-(2-methylpyridin-4-yl)-1H-indol-5-yl)-2-methylpropan-1-one] | 7.04 | 6.80 | 6.25
Cc1cc(-c2[nH]c3ccc(C(C)(C)C(=O)N4CCC[C@H](N)C4)cc3c2C(C)C)ccn1 [Example 155, (S)-1-(3-aminopiperidin-1-yl)-2-(3-isopropyl-2-(2-methylpyridin-4-yl)-1H-indol-5-yl)-2-methylpropan-1-one] | 6.84 | 6.95 | 5.69
Cc1cc(-c2[nH]c3ccc(C(C)(C)C(=O)N4CCCC(CN)C4)cc3c2C(C)C)ccn1 (stereo not drawn) [Example 156, 1-(3-(aminomethyl)piperidin-1-yl)-2-(3-isopropyl-2-(2-methylpyridin-4-yl)-1H-indol-5-yl)-2-methylpropan-1-one] | 7.28 | 7.28 | 6.03

Reference: patent publication US11420973B2, “Amide substituted indole compounds useful as TLR inhibitors” (BRISTOL-MYERS SQUIBB COMPANY, priority 2017, dated 2022)
